Data published in publication PMC5382548 (Scientific Reports, 2015).

Tests used:
[1] = system: colon cancer cell lines with mutated KRAS; assay: Anti-proliferative activity, colon cancer cell lines with mutated KRAS; format: cell-based; settings: Homo sapiens; range over HCT116 and SW620
From the text: These differences may be due to differing effects on cellular proliferation mechanisms, on cellular uptake and/or intracellular distribution. Assuming a passive diffusion membrane transport for IQcs, compound 2d is expected to accumulate more inside cells due to its predicted higher lipophilicity than compounds with an additional protonated basic group at physiologic pH (3d and 3e). Similarly, the tetra-cationic porphyrin TMPyP4, which is known to have low cell-membrane permeability, gave higher IC50 values.
HCT116 human colon carcinoma cells, SW620 human colorectal adenocarcinoma and HEK293 T human embryonic kidney cells were grown in Dulbecco's modified Eagle's medium (DMEM) supplemented with 10% fetal bovine serum, and 1% antibiotic/antimycotic (Invitrogen, Grand Island, NY, USA) and maintained at 37°C in a humidified atmosphere of 5% CO2. […] Following 72 h of compound exposure, cell viability was evaluated using the CellTiter 96 AQueous Non-Radioactive Cell Proliferation Assay (Promega, Madison, WI, USA), using 3-(4,5-dimethylthiazol-2-yl)-5-(3-carboxymethoxyphenyl)-2-(4-sulfophenyl)-2H-tetrazolium, inner salt (MTS) as previously described. Cell viability data were expressed as mean ± SEM or mean ± SD from at least three independent experiments. IC50 and IC65 values were determined using GaphPad Prism v.5.00 (GraphPad Software). […]

[2] = system: KRAS mRNA in Panc-1 cells; design: method as in PMID 18490377; settings: 12 or 24 hours, 50 μM; cited from earlier work
[3] = system: mouse KRAS promoter; design: method as in PMID 16687659; settings: 3–20 μM 24 hours prior to transfection; cited from earlier work
[4] = system: KRAS21R (DNA, G4) AGGGCGGTGTGGGAAGAGGGA; assay: spectrofluorimetric titration, one-site saturation fit; settings: 60 mM K+; K-cacodylate pH 7.4, 25 °C; 1 μM compound; SD ≤ 0.2 × 10^6
[5] = system: KRAS21R G4; assay: Binding stoichiometry, Job plot (continuous variation); design: species or system human; settings: [3e] + [G4] = 4 μM, 25°C
Protocol: In order to determine the number of ligand-binding sites, continuous variation analysis (Job plot)[27] of 3e with KRAS21R was performed. Plotting of fluorescence as a function of the mole fraction of 3e (χ) gave linear dependences at high and low molar fractions (Figure S9b).
The binding stoichiometry of indolo[3,2-c]quinoline derivative 3e with KRAS21R G4 was obtained by spectrophotofluorimetry at 25°C using the Job method of continuous variation. A previously annealed G4 stock solution at 25 μM (heating to 95°C for 10 min, followed by slow cooling to RT) of the non-labelled oligonucleotide sequences KRAS21R in K-cacodylate buffer pH 7.4 (containing 60 mM K^+) was used. Test compound was prepared at 1 mM concentration in HPLC-grade water (10% DMSO) stock solution. The rest of the dilutions were performed using K-cacodylate buffer. Total concentration of ligand and G4 in the solution was kept constant ([3e] + [G4] = 4 μM) as previously described.
Figure S9 | a) CD titration spectra of the KRAS21R and induced by titration with 3e in K-cacodylate buffer pH 7.4, containing 60 mM K+ at 25 °C. Solid black line – Pure G4 DNA at […]
sequentially from the top around 260 nm; b) Job Plot of 3e in complex with KRAS21R G4 in K-cacodylate buffer pH 7.4, containing 60 mM K+, at 25 °C. The sum of the concentrations of 3e and G4 was kept constant at 4 µM.
Figure S10. […]

[6] = system: F21T G4; assay: FRET melting competition assay, labelled F21T; format: binding, human; settings: ligand 1 μM, labelled F21T 0.2 μM
Protocol: (§1) To assess selectivity of the IQc compounds 2d and 3e to different DNA sequences, we performed competitive FRET experiments with 0.2 μM of labelled KRAS21R and F21T G4 and increasing concentrations of two non-fluorescent competitors, 26mer ds-DNA or the human telomeric sequence (HT21). A decrease in ΔTm indicates the displacement of the ligand from labelled G4 by the competitor DNA.
(§2) Figure 3 FRET melting competition assay data for (a) 2d and (b) 3e (1 μM) in complex with KRAS21R and F21T G4s (0.2 μM), with increasing concentrations of non-labeled 26ds, HT21 or KRAS21R (0.4 to 25 μM) competitor, in K-cacodylate buffer (pH 7.4, 60 mM K^+).
(§3) Oligonucleotide sequences were purchased from Eurofins MWG Synthesis GmbH, Germany or STAB VIDA Genomics Lab, Caparica, Lisbon, Portugal. The labelled oligonucleotides used in the FRET assays had attached the donor fluorophore FAM (6-carboxyfluorescein) and the acceptor fluorophore TAMRA (6-carboxytetramethylrhodamine): KRAS21R: 5′-FAM-[…]-TAMRA-3′; KRAS32R: 5′-FAM-[…]-TAMRA-3′; UTR-1: 5′-FAM-GCGGCGGCGGAGG-TAMRA-3′; UTR-2: 5′-FAM-[…]-TAMRA-3; T-Loop:5′-FAM-[…]-TAMRA-3′; F21T: 5′-FAM-[…]-TAMRA-3′. Non-labelled oligonucleotides were used in FRET competition assays and in the spectroscopic studies: ds26: - d(5′-CAATCGGATCGAATT CGATCCGATTG-3′); KRAS21R: 5′-[…]-3′; HT21: 5′-[…]-3′. […]

[7] = system: KRAS21R G4; assay: FRET melting competition assay, labelled KRAS21R; format: binding, human; settings: ligand 1 μM, labelled KRAS21R 0.2 μM
Protocol: as §1, §2, §3

CCN(CC)CCCNc1ccc2c(c1)c1[nH]c3ccccc3c1c[n+]2C [2d]
IC50 [1]: 140 to 500 nM

C[n+]1ccc(-c2c3nc(c(-c4cc[n+](C)cc4)c4ccc([nH]4)c(-c4cc[n+](C)cc4)c4ccc([nH]4)c(-c4cc[n+](C)cc4)c4nc2C=C4)C=C3)cc1 [TMPyP4, reference compound]
Decrease in KRAS mRNA levels [2]: ~30%
Reduction of mouse KRAS promoter activity [3]: 80%

Cn1cc2c3ccccc3nc-2c2cc(Br)ccc21 [2a, 2-bromo-5-methyl-indolo[3,2-c]quinoline]
Ka [4]: 1.7e+06 M⁻¹

CCN(CC)CCCNc1ccc2c(c1)[nH]c1c2c[n+](C)c2ccc(NCCCN(CC)CC)cc12.[Cl-] [3e]
Job plot molar fraction at intersection [5]: 0.61
Concentration of competitor KRAS21R reducing the induced thermal stability of F21T by 50% [6]: 2 µM
Concentration of HT21 required to displace ligand from its complex with KRAS21R [7]: > 10 µM
Fold higher concentration of HT21 required to displace ligand from its complex with KRAS21R [7]: more than 50 fold
